Source: US12048742B2, “Hepatitis C virus peptide compositions and methods of use thereof” (The Governors of the University of Alberta, priority 2018, dated 2024)
Several values for one entry are separate records, joined by “and”; a condition that tells them apart may be missing. Identical values can stand only once. No end group written: not given here.

Tests used:
[1] = Solubility of T-cell epitope polypeptides in E1E2 buffer (Protocol 1); type: physicochemical; conditions: for solubility in E1E2 buffer (in words): Protocol 1, 1 mg/ml in E1E2 buffer, Nanodrop, FIG. 6, estimates based on A280 nm reading; for solubility: E1E2 buffer (10 mM sodium citrate, 250 mM NaCl, 1 mM EDTA, 0.1% TWEEN 80, pH 6.0), without adding dimethylsulfoxide, read-out: soluble in E1E2 buffer at a concentration of
Description: For example, the peptides TP35-NS3 and TP50C are soluble in E1E2 buffer at a concentration of at least 1 mg/ml. The peptides TP35-NS3 and TP50C are soluble in E1E2 buffer at a concentration of at least 1 mg/ml, without the need for adding dimethylsulfoxide (DMS). In some cases, a T-cell epitope polypeptide suitable for inclusion in a composition of the present disclosure is soluble in E1E2 buffer at a concentration of at least 25 μg/ml, at least 30 μg/ml, at least 35 µg/ml, at least 50 μg/ml, at least 75 μg/ml, at least 100 μg/ml, at least 250 μg/ml, at least 500 µg/ml, at least 750 μg/ml, or at least 1 mg/ml.
Protocol 1 The solubility of the T-cell epitope polypeptides in E1E2 buffer was determined. E1E2 buffer: 10 mM sodium citrate, 250 mM NaCl, 1 mM ethylenediaminetetraacetic acid (EDTA), 0.1% non-ionic detergent TWEEN® 80, pH 6.0. Lyophilized T-cell epitope polypeptides were individually added to E1E2 buffer at a final concentration of 1 mg T-cell epitope polypeptide per ml E1E2 buffer, to generate T-cell epitope polypeptide/E1E2 solutions. The T-cell epitope polypeptide/E1E2 solutions were vortexed for 3 seconds. The T-cell epitope polypeptide/E1E2 solutions were then centrifuged at 10,000×g for 30 seconds. […] After centrifugation, the concentration of peptides was measured using Nanodrop (Thermo Fisher).
Solubility values shown in FIG. 6 are estimates based on A280 nm reading.

[2] = FIG. 6
Excerpt: Table printed on a drawing sheet, FIG. 6
The patent's description of the figure: FIG. 6 provides the solubility of various T-cell epitope polypeptides in an aqueous buffer. TP35-NS3: SEQ ID NO:133; TP35-NS3(Lys)3: SEQ ID NO:302; TP42: SEQ ID NO:228; TP45 (C-terminal CNV replaced with KKK): SEQ ID NO:248; TP48: SEQ ID NO:254; TP48(Lys)3: SEQ ID NO:257; and TP50-C: SEQ ID NO:148.
First reader's note: Blanks inside the sequences only mark line breaks within the printed cell.

[3] = Solubility of reconstituted lyophilized peptides (Protocol 3); type: physicochemical; conditions: Protocol 3, reconstituted in E1E2 buffer, E1E2 buffer without Tween, or water; shaking 2 h 30 min at room temperature; FIG. 13
Description: Protocol 3 TP42, TP45(Lys)3, and TP48 were lyophilized. The lyophilized peptides were reconstituted in: i) E1E2 buffer; or ii) E1E2 buffer without Tween; or iii) water. The reconstituted peptide solutions were vigorously vortexed for 20 seconds. After vortexing, the peptide solutions were incubated at room temperature with continuous shaking at 300 rpm for 2 hours 30 minutes. Afterwards, peptide solutions were centrifuged at 5000×g for 1 minute. After centrifugation, the concentration of the peptides in the supernatant was measured.

[4] = TP42-2: […] MW= 4543 g/mol; EC= 3105 (secreted protein)
Description: Table printed on a drawing sheet, FIG. 27
Title: TP42-2: […] MW= 4543 g/mol; EC= 3105 (secreted protein)
The patent's description of the figure: FIG. 27 depicts solubility data for a TP33 T-cell epitope polypeptide (SEQ ID NO:279) and a TP42-2 T-cell epitope polypeptide (SEQ ID NO:291).
First reader's note: The sequence, MW and EC of TP42-2 are printed above the table; each row is one solution in which solubility was tested.

With `CC[C@H](C)[C@H](NC(=O)[C@@H](NC(=O)[C@H](CO)NC(=O)[C@H](CC(=O)O)NC(=O)[C@H](Cc1ccccc1)NC(=O)[C@H](CC(=O)O)NC(=O)CNC(=O)[C@@H](NC(=O)[C@H](Cc1ccccc1)NC(=O)CNC(=O)[C@@H](NC(=O)[C@H](CCSC)NC(=O)[C@H](CC(C)C)NC(=O)[C@H](C)NC(=O)[C@H](CC(=O)O)NC(=O)[C@@H](NC(=O)[C@H](C)NC(=O)[C@@H](NC(=O)[C@@H](NC(=O)[C@@H](NC(=O)[C@@H](NC(=O)[C@H](CC(=O)O)NC(=O)CNC(=O)[C@H](CO)NC(=O)[C@@H](NC(=O)[C@@H]1CCCN1C(=O)[C@@H](NC(=O)[C@@H](NC(=O)[C@H](CO)NC(=O)[C@@H](NC(=O)[C@H](CC(=O)O)NC(=O)[C@H](CC(C)C)NC(=O)CNC(=O)[C@H](CCCNC(=N)N)NC(=O)[C@H](Cc1ccc(O)cc1)NC(=O)[C@H](Cc1ccc(O)cc1)NC(=O)[C@H](C)NC(=O)[C@@H](NC(=O)[C@H](C)NC(=O)[C@H](CC(N)=O)NC(=O)[C@@H](N)CC(C)C)C(C)C)C(C)C)C(C)C)[C@@H](C)CC)[C@@H](C)O)C(C)C)C(C)C)C(C)C)C(C)C)[C@@H](C)O)[C@@H](C)O)[C@@H](C)O)C(C)C)C(=O)N[C@@H](CC(=O)O)C(=O)N[C@@H](CCCCN)C(=O)N[C@@H](CCCCN)C(=O)N[C@@H](CCCCN)C(=O)O` the “solubility in E1E2 buffer (in words)” value [1] was “much lower solubility”.
For “GTEGEIPFYGKAIPLEQIKGGRHLIFCHSKKKCDELAAKLTG [TP42] [listing 1 of 2 here]”, the “Measured Concentration” value [2] was 0.079 mg/mL and the “Solubility (%)” value [2] was 12%.
For “GTEGEIPFYGKAIPLEQIKGGRHLIFCHSKKKCDELAAKLTG [TP42] [listing 2 of 2 here]”, the “visible precipitation in E1E2 buffer” value ([1]; Protocol 1, 1 mg peptide per ml E1E2 buffer, after vortexing and centrifugation at 10,000×g) was “precipitation was visible”, the “solubility in E1E2 buffer (in words)” value [1] was “much lower solubility” and the “solubility (in words)” value [3] was “good solubility”.
For “GVYLLPRRGPRLGVRATRKTSERSQPRGRRQPIPKARRSEGRSWAQPGYP [TP50-C]”, the solubility [1] was ≥ 1000 µg/mL and the “solubility in E1E2 buffer (in words)” value [1] was “good solubility”.
In the case of “ILRRHVGPGEGAVQWMNRLIAFASRGNHVSPTHYVPESDASARVTQIL [TP48]”, the “solubility (in words)” value [3] is reported as “good solubility”.
In the case of “ILRRHVGPGEGAVQWMNRLIAFASRGNHVSPTHYVPESDASARVTQILKKK [TP48-(Lys)3]”, the “solubility in E1E2 buffer (in words)” value [1] is reported as “good solubility”.
With “KGGRHLIFCHSKKKCDELAAKLTGLGLNAVAYYRGLDVSVIP [TP42-2]” the “Solubility | Measured” value [4] was 415 µg/mL and 215 µg/mL and 233 µg/mL and the “Solubility | Percent (%)” value [4] was 83% and 43% and 47%.
In the case of “KSTKVPAAYAAQGYKVLVLNPSVAATLGFGAYMSK [TP35-NS3]”, the solubility [1] is reported as ≥ 1000 µg/mL and the “solubility in E1E2 buffer (in words)” value [1] is reported as “good solubility”.
With “KSTKVPAAYAAQGYKVLVLNPSVAATLGFGAYMSKKKK [TP35-NS3-(Lys)3]” the “solubility in E1E2 buffer (in words)” value [1] was “good solubility”.
